# Measurements as given in US20250339517A1, “LIPID N[…]” (priority 2022, published 2025).
# Test system: F9A6-CD4 T cell hybridoma overlaid on M. tuberculosis-infected macrophages
# Test: Ex vivo MTB Ag85B antigen presentation to CD4 T cells (IL-2 ELISA)
# Format: cell-based, human
# Conditions: concurrent activation; decrease for MO-TDM compared to TDM and MO
# Procedure: Briefly, M. tuberculosis-infected MΦs were washed after a 4-hour infection and overlaid with the F9A6-CD4 T cell hybridoma which recognizes an Ag85B epitope in the context of human HLA-DR1. IL-2 secreted from hybridoma T cells or other cytokines secreted from M. tuberculosis-infected MΦs were determined using a sandwich ELISA kit (Biolegend).
# By inhibiting the phagosome lysosome fusion in macrophages, TDM not only protects the M. tuberculosis bacilli from intracellular killing but also reduces the priming of T cells due to reduced processing of Mycobacterial antigens in lysosomal compartments. Since increased killing of intracellular MTB in macrophages was observed when they were stimulated with a cubosomal MO-TDM (1 mol %) preparation, it indicated a possible increase in lysosmal processing of its antigens. […] An in vitro antigen presentation assay using a CD4 hybridoma T cell that recognizes a specific epitope of Ag85B was adopted to determine the priming of T cells by macrophages that were stimulated with MO, TDM and MO-TDM (1 mol %). Secreted levels of IL-2 by hybridoma T cells upon overlay to M. tuberculosis infected macrophages with and without stimulation with MO, TDM and MO-TDM (1 mol %) were monitored in a time dependent manner (FIG. 9).
substance,measurement,value
"trehalose 6,6′ dimycolate [TDM]","antigen presentation to T cells (secreted IL-2 levels), change from day 3 to day 5 post infection",decreased sharply
